Assay results: patent US8716250B2, “Diazoxide for the treatment of Friedreich's ataxia” (Universita' Degli Studi di Bari, priority 2008, dated 2014)
Entries after “also recorded” stand apart in the source; their conditions may differ.

Legend:
[1] = children treated with ibedenone; cited from earlier work
frataxin [2] = assay: Quantitative real-time RT-PCR of frataxin expression in immortalized lymphoblastoid cell lines of FRDA patients; type: cell-based, human; settings: FRDA patient lymphoblastoid cells, 24 hours
Protocol: Extraction of the RNA from the cells is performed according to the indications contained in the QIAconnect Gene Expression (Qiagen) kit. Particularly the samples are lysed and homogenated. Ethanol is then added to the treated samples to provide ideal conditions for the bond with the silica-gel RNase membrane. In this way the RNA binds and the contaminants are washed; the pure RNA is concentrated and eluted. The concentration of the extracted RNA is determined by UV spectrophotometric method under suitable reading conditions. The reverse transcription reaction is performed with the GeneAmp RNA PCR core (Applied Biosystems) kit according to the indications provided by the manufacturer. Quantification of the reverse-transcribed product is performed using fluorescent probes capable of hybridizing and specifically pairing DNA regions of interest. The probes used according to the invention are Probe Hs 00175940_m1 and Probe Hs 99999903 ml (Applied Biosystems). Particularly the probe defined Hs 00175940_m1 represents the specific probe able to recognise and hybridize the human frataxin gene, while the probe Hs 99999903 ml recognises the human actin and is useful for normalising the mRNA values of the target. The analyzing step of the results is performed by substituting the mathematical formula 2^−ΔΔCt with the difference between the target threshold cycle in the samples treated and not treated (control) with diazoxide, normalised with the threshold cycle value of the reference gene (actin), in the case in question ΔCt=Ct Hs00175940—m1−Ct Hs99999903—m1. ΔΔCt=ΔCt(treated sample)−ΔCt(control sample) The result of the calculation 2^−ΔΔCt represents the relative quantification value. Said value permits determination of the quantity of frataxin (which represents the target) in the sample treated with diazoxide with respect to the quantity of frataxin in the sample not treated with diazoxide (which represents the control) normalised for the quantity of actin (which represents the reference or internal standard) in the same sample. The expression level and therefore the quantity of frataxin of cells deriving from immortalized lymphoblastoid cell lines of FRDA patients treated as described in examples 2 and 3 was compared 24 hours after the treatment. […] In particular, the broken vertical line represents the threshold value above which the increase in frataxin expression can be seen. The experiment was conducted testing the cells with concentrations of diazoxide varying from 25 nM to 100 μM in combination with fixed concentrations of glucose 20 mM. The expression and therefore the quantity of frataxin in cells deriving from immortalized lymphoblastoid cell lines of FRDA patients was compared.

frataxin [3] = assay: Quantitative real-time RT-PCR of frataxin expression in HEK 293 cells; type: cell-based, human
Protocol: The human cell line HEK 293 (Human Embryonic Kidney) grown in Dulbecco's modified Eagle's medium (DMEM, Sigma) with the addition of 10% foetal bovine serum (FBS) (v/v), glutamine 2 mM, penicillin 100 unit/ml and streptomycin 100 μg/ml is kept in an incubator at a temperature of 37° C. and 5% CO2. Preferably the HEK 293 cells, cultured on 60 mm plates at a concentration of 0.5×10^6, after at least 14 hours of growth have a 70-80% confluence. […] Extraction of the RNA from the cells is performed according to the indications contained in the QIAconnect Gene Expression (Qiagen) kit. Particularly the samples are lysed and homogenated. Ethanol is then added to the treated samples to provide ideal conditions for the bond with the silica-gel RNase membrane. In this way the RNA binds and the contaminants are washed; the pure RNA is concentrated and eluted. The concentration of the extracted RNA is determined by UV spectrophotometric method under suitable reading conditions. The reverse transcription reaction is performed with the GeneAmp RNA PCR core (Applied Biosystems) kit according to the indications provided by the manufacturer. Quantification of the reverse-transcribed product is performed using fluorescent probes capable of hybridizing and specifically pairing DNA regions of interest. The probes used according to the invention are Probe Hs 00175940_m1 and Probe Hs 99999903 ml (Applied Biosystems). Particularly the probe defined Hs 00175940_m1 represents the specific probe able to recognise and hybridize the human frataxin gene, while the probe Hs 99999903 ml recognises the human actin and is useful for normalising the mRNA values of the target. The analyzing step of the results is performed by substituting the mathematical formula 2^−ΔΔCt with the difference between the target threshold cycle in the samples treated and not treated (control) with diazoxide, normalised with the threshold cycle value of the reference gene (actin), in the case in question ΔCt=Ct Hs00175940—m1−Ct Hs99999903—m1. ΔΔCt=ΔCt(treated sample)−ΔCt(control sample) The result of the calculation 2^−ΔΔCt represents the relative quantification value. Said value permits determination of the quantity of frataxin (which represents the target) in the sample treated with diazoxide with respect to the quantity of frataxin in the sample not treated with diazoxide (which represents the control) normalised for the quantity of actin (which represents the reference or internal standard) in the same sample. For example a value of 1 is attributed to the control samples, i.e. HEK 293 cells not treated with diazoxide chosen as references.

frataxin [4] = assay: Western blot analysis of frataxin in cells of FRDA patients; type: cell-based, human; settings: FRDA patient cells, 24 hours after the initial treatment
Protocol: The cells treated as described in example 1 are lysed with a lysis buffer (0.15 M NaCl, 5 mM EDTA, pH 8, 1% Triton X100, 10 mM Tris-Cl, pH 7.4) and transferred to microcentrifuge tubes. A quantity of approximately 50 μg of cell suspension is separated by electrophoresis in the presence of SDS (sodium dodecyl sulphate) at 17% (denaturing conditions). The resulting product is transferred onto nitrocellulose membranes. Identification of the presence of the target protein, i.e. the frataxin, is performed with a rabbit polyclonal primary antibody directed against said protein (Santa Cruz Biotechnology), and a goat-anti rabbit HRP secondary antibody (Pierce). The reaction was identified with enzymatic method by means of ECL plus system (Amersham). […] It can be seen that the cells of the patients treated according to the invention present an evident band as expression of the quantity of frataxin present with respect to the non-treated control.

frataxin [5] = assay: Western blot analysis of frataxin in HEK 293 cells; type: cell-based, human; settings: for frataxin expression, western blot: 4 or 5 days after the initial treatment
Protocol: The human cell line HEK 293 (Human Embryonic Kidney) grown in Dulbecco's modified Eagle's medium (DMEM, Sigma) with the addition of 10% foetal bovine serum (FBS) (v/v), glutamine 2 mM, penicillin 100 unit/ml and streptomycin 100 μg/ml is kept in an incubator at a temperature of 37° C. and 5% CO2. Preferably the HEK 293 cells, cultured on 60 mm plates at a concentration of 0.5×10^6, after at least 14 hours of growth have a 70-80% confluence. […] The cells treated as described in example 1 are lysed with a lysis buffer (0.15 M NaCl, 5 mM EDTA, pH 8, 1% Triton X100, 10 mM Tris-Cl, pH 7.4) and transferred to microcentrifuge tubes. A quantity of approximately 50 μg of cell suspension is separated by electrophoresis in the presence of SDS (sodium dodecyl sulphate) at 17% (denaturing conditions). The resulting product is transferred onto nitrocellulose membranes. Identification of the presence of the target protein, i.e. the frataxin, is performed with a rabbit polyclonal primary antibody directed against said protein (Santa Cruz Biotechnology), and a goat-anti rabbit HRP secondary antibody (Pierce). The reaction was identified with enzymatic method by means of ECL plus system (Amersham).

[6] = diazoxide in combination with glucose
[7] = diazoxide in combination with leucine

SMILES: COC1=C(OC)C(=O)C(CCCCCCCCCCO)=C(C)C1=O [ibedenone]
- benefits at neurological level [1]: practically nil
- children treated presenting an improvement in some of the symptoms [1]: 85%

SMILES: CC1=NS(=O)(=O)c2cc(Cl)ccc2N1 [diazoxide, 7-chloro-3-methyl-4H-1,2,4 benzothiadiazine 1,1-dioxide]
- frataxin expression levels, deviation from the threshold line (frataxin [2]; diazoxide 100 μM combined with glucose 20 mM): significant deviation from the threshold line
- effect on frataxin expression of the combination (frataxin [2]; [6]): synergic effect
- effect on frataxin expression of the combination (frataxin [2]; [7]): synergic effect
- frataxin expression levels, deviation from the threshold line (frataxin [2]; some particular concentrations of diazoxide (25 nM to 100 μM tested) with glucose 20 mM): minimum deviation from the threshold line
- frataxin expression levels, deviation from the threshold line (frataxin [3]; HEK 293, diazoxide 100 μM combined with leucine 10 mM, 24 hours): significant deviation from the threshold line
- increase in the quantity of frataxin with respect to the non-treated control over time (frataxin [3]; HEK 293, diazoxide 100 μM together with glucose 20 mM, 48 and 72 hours after the treatment): remains constant
- quantity of frataxin / frataxin expression with respect to the non-treated control (frataxin [3]; HEK 293, diazoxide 100 μM with glucose 20 mM, 24 hours): increased quantity of frataxin; also recorded: significant deviation from the threshold line
- frataxin expression levels, deviation from the threshold line (frataxin [3]; HEK 293, diazoxide only (25 nM or 100 μM without glucose), 24 hours): minimum deviation from the threshold line
- frataxin expression, western blot, with respect to the non-treated control (frataxin [4]; [6]): maintain the increase in expression
- frataxin expression, western blot, with respect to the non-treated control (frataxin [4]; [7]): maintain the increase in expression
- frataxin quantity (band intensity) versus control cells (frataxin [5]; HEK 293, cells treated as in example 1 (diazoxide 100 μM with glucose 20 mM, 24 hours)): greater than that of the control cells
- frataxin expression, western blot (frataxin [5]; [6]): maintain the increase in expression
- frataxin expression, western blot (frataxin [5]; [7]): maintain the increase in expression

SMILES: CC(C)C[C@H](N)C(=O)O [leucine]
- frataxin expression levels, deviation with respect to the non-treated control (frataxin [3]; HEK 293, leucine only 10 mM, 24 hours): minimum deviation with respect to the non-treated control
